Measured values as given in patent US7153855B2, “Pyrazolopyridinyl pyrimidine therapeutic compounds” (SmithKline Beecham Corporation, priority 2001, dated 2006).

Test system: HSV-1
Assay: HSV-1 infection of Vero 76 cells, viral DNA detected by hybridization capture (chemiluminescence)
Type: cell-based
Settings: Human alphaherpesvirus 1; HSV-1 in Vero 76 cells, MOI=0.001, compounds incubated 40–48 hours at 37° C.; read-out: IC50
Text: In the following example, “MEM” means Minimal Essential Media; “FBS” means Fetal Bovine Serum; “NP40” and “Igepal” are detergents; “MOI” means Multiplicity of Infection; “NaOH” means sodium hydroxide; “MgCl2” means magnesium chloride; “dATP” means deoxyadenosine 5′ triphosphate; “dUTP” means deoxyuridine 5′ triphosphate; “dCTP” means dexoxycytidine 5′ triphosphate; “dGTP” means deoxyguanosine 5′ triphosphate; “GuSCN” means Guanidinium thiocyanate; “EDTA” means ethylenediamine tetraacetic acid; “TE” means Tris-EDTA; “SCC” means sodium chloride/sodium citrate; “APE” means a solution of ammonia acetate, ammonia phosphate, EDTA; “PBS” means phosphate buffered saline; and “HRP” means horseradish peroxidase.
Vero 76 cells were maintained in MEM with Earle's salts, L-glutamine, 8% FBS (Hyclone, A-1111-L) and 100 units/mL Penicillin-100 μg/mL Streptomycin. For assay conditions, FBS was reduced to 2%. Cells are seeded into 96-well tissue culture plates at a density of 5×10^4 cells/well after being incubated for 45 min at 37° C. in the presence of HSV-1 or HSV-2 (MOI=0.001). Test compounds are added to the wells and the plates are incubated at 37° C. for 40–48 hours. Cell lysates are prepared as follows: media was removed and replaced with 150 μL/well 0.2 N NaOH with 1% Igepal CA 630 or NP-40. Plates were incubated up to 14 days at room temperature in a humidified chamber to prevent evaporation.
For the detection probe, a gel-purified, digoxigenin-labeled, 710-bp PCR fragment of the HSV UL-15 sequence was utilized. PCR conditions included 0.5 μM primers, 180 μM dTTP, 20 μM dUTP-digoxigenin (Boehringer Mannheim 1558706), 200 μM each of dATP, dCTP, and dGTP, 1×PCR Buffer II (Perkin Elmer), 2.5 mM MgCl2, 0.025 units/μL of AmpliTaq Gold polymerase (Perkin Elmer), and 5 ng of gel-purified HSV DNA per 100 μL Extension conditions were 10 min at 95° C., followed by 30 cycles of 95° C. for 1 min, 55° C. for 30 sec, and 72° C. for 2 min. The amplification was completed with a 10-min incubation at 72° C. Primers were selected to amplify a 728 bp probe spanning a section of the HSV1 UL15 open reading frame (nucleotides 249–977). Single-stranded transcripts were purified with Promega M13 Wizard kits. The final product was mixed 1:1 with a mixture of 6 M GuSCN, 100 mM EDTA and 200 μg/mL herring sperm DNA and stored at 4° C.
The capture DNA plasmid (HSV UL13 region in pUC) was linearized by cutting with Xba I, denatured for 15 min at 95° C. and diluted immediately into Reacti-Bind DNA Coating Solution (Pierce, 17250, diluted 1:1 with TE buffer, pH 8) at 1 ng/μL 75 μL/well were added to Corning (#3922 or 9690) white 96-well plates and incubated at room temperature for at least 4 hrs before washing twice with 300 μL/well 0.2×SSC/0.05% Tween-20 (SSC/T buffer). The plates were then incubated overnight at room temperature with 150 μL/well 0.2 N NaOH, 1% IGEPAL and 10 μg/mL herring sperm DNA.
Twenty-seven (27) μL of cell lysate was combined with 45 μL of hybridization solution (final concentration: 3M GuSCN, 50 mM EDTA, 100 μg/ml salmon sperm DNA, 5×Denhardt's solution, 0.25×APE, and 5 ng of the digoxigenin-labeled detection probe). APE is 1.5 M NH4-acetate, 0.15 M NH4H2 phosphate, and 5 mM EDTA adjusted to pH 6.0. Mineral oil (50 μL) was added to prevent evaporation. The hybridization plates were incubated at 95° C. for 10 minutes to denature the DNA, then incubated at 42° C. overnight. The wells were washed 6× with 300 μL/well SSC/T buffer then incubated with 75 μL/well anti-digoxigenin-HRP-conjugated antibody (Boehringer Mannheim 1207733, 1:5000 in TE) for 30 min at room temperature. The wells were washed 6× with 300 μL/well with PBS/0.05% Tween-20 before 75 μL/well SuperSignal LBA substrate (Pierce) was added. The plates were incubated at room temperature for 30 minutes and chemiluminescence was measured in a Wallac Victor reader.
The following results were obtained for HSV-1.

Row | Compound | IC50
1 | Nc1cccc(-c2nn3c(NC4CCCC4)cccc3c2-c2ccnc(NC3CCCC3)n2)c1 [Example 34, 2-(3-Aminophenyl)-N-cyclopentyl-3-[2-(cyclopentylamino)-4-pyrimidinyl]pyrazolo[1,5-a]pyridin-7-amine] | 0.6 µM
2 | c1cc(-c2ccsc2)cc(-c2nn3c(NC4CCCC4)cccc3c2-c2ccnc(NC3CCCC3)n2)c1 [Example 32, N-Cyclopentyl-3-[2-(cyclopentylamino)-4-pyrimidinyl]-2-[3-(3-thienyl)phenyl]pyrazolo[1,5-a]pyridin-7-amine] | 0.6 µM
3 | COC(=O)CNc1cccc2c(-c3ccnc(NC4CCCC4)n3)c(-c3ccc(OC)cc3)nn12 [Example 79, Methyl N-[3-[2-(cyclopentylamino)pyrimidin-4-yl]-2-(4-methoxyphenyl)pyrazolo[1,5-a]pyridin-7-yl]glycinate] | 2.5 µM
4 | COc1ccc(-c2nn3c(N4CCOCC4)cccc3c2-c2ccnc(NC3CCCC3)n2)cc1 [Example 61, N-Cyclopentyl-4-[2-(4-methoxyphenyl)-7-(4-morpholinyl)pyrazolo[1,5-a]pyridin-3-yl]-2-pyrimidinamine] | 0.2 µM
5 | CCCCNc1nccc(-c2c(-c3ccc(NCC4CC4)cc3)nn3c(NCCCC)cccc23)n1 [Example 22, N-butyl-3-[2-(butylamino)-4-pyrimidinyl]-2-{4-[(cyclopropylmethyl)amino]phenyl}pyrazolo[1,5-a]pyridin-7-amine] | 0.6 µM
6 | Fc1cccc(-c2nn3c(NC4CCCC4)cccc3c2-c2ccnc(NC3CC3)n2)c1 [Example 102, N-Cyclopentyl-3-[2-(cyclopropylamino)-4-pyrimidinyl]-2-(3-fluorophenyl)pyrazolo[1,5-a]pyridin-7-amine] | 0.7 µM
7 | c1ccc(-c2cccc(-c3nn4c(NC5CCCC5)cccc4c3-c3ccnc(NC4CCCC4)n3)c2)cc1 [Example 29, 2-[1,1′-Biphenyl]-3-yl-N-cyclopentyl-3-[2-(cyclopentylamino)-4-pyrimidinyl]pyrazolo[1,5-a]pyridin-7-amine] | 3 µM
8 | COc1cccc(-c2nn3c(NC(C)C)cccc3c2-c2ccnc(NC3CCCC3)n2)c1 [Example 52, 3-[2-(Cyclopentylamino)-4-pyrimidinyl]-N-isopropyl-2-(3-methoxyphenyl)pyrazolo[1,5-a]pyridin-7-amine] | 0.56 µM
9 | Oc1ccc(-c2nn3c(NC4CC4)cccc3c2-c2ccnc(NC3CC3)n2)cc1 [Example 69, 4-{7-(Cyclopropylamino)-3-[2-(cyclopropylamino)-4-pyrimidinyl]-pyrazolo[1,5-a]pyridin-2-yl}phenol] | 2.3 µM
10 | CCCCNc1nccc(-c2c(-c3ccc(NC4CCCCC4)cc3)nn3c(NCCCC)cccc23)n1 [Example 17, N-Butyl-3-[2-(butylamino)-4-pyrimidinyl]-2-[4-(cyclohexylamino)phenyl]-pyrazolo[1,5-a]pyridin-7-amine] | 1.5 µM
11 | CCCCNc1nccc(-c2c(-c3ccc(Nc4ccccc4)cc3)nn3c(NCCCC)cccc23)n1 [Example 19, 2-(4-Anilinophenyl)-N-butyl-3-[2-(butylamino)-4-pyrimidinyl]pyrazolo[1,5-a]pyridin-7-amine] | 0.5 µM
12 | COc1cccc(-c2nn3c(NC4CCCC4)cccc3c2-c2ccnc(NC3CCCC3)n2)c1 [Example 51, N-Cyclopentyl-3-[2-(cyclopentylamino)-4-pyrimidinyl]-2-(3-methoxyphenyl)pyrazolo[1,5-a]pyridin-7-amine] | 0.21 µM
13 | c1cc(OCC2CC2)cc(-c2nn3c(NC4CCCC4)cccc3c2-c2ccnc(NC3CCCC3)n2)c1 [Example 55, N-Cyclopentyl-3-[2-(cyclopentylamino)-4-pyrimidinyl]-2-[3-(cyclopropylmethoxy)phenyl]pyrazolo[1,5-a]pyridin-7-amine] | 0.1 µM
14 | C=CCOc1ccc(-c2nn3c(NC4CC4)cccc3c2-c2ccnc(NC3CC3)n2)cc1 [Example 73, 2-[4-(Allyloxy)phenyl]-N-cyclopropyl-3-[2-(cyclopropylamino)-4-pyrimidinyl]pyrazolo[1,5-a]pyridin-7-amine] | 2 µM
15 | c1ccc(Oc2ccc(-c3nn4c(NC5CCCC5)cccc4c3-c3ccnc(NC4CCCC4)n3)cc2)cc1 [Example 13, N-Cyclopentyl-3-[2-(cyclopentylamino)-4-pyrimidinyl]-2-(4-phenoxyphenyl)pyrazolo[1,5-a]pyridin-7-amine] | 1 µM
16 | CCCCOc1ccc(-c2nn3c(NC4CCCC4)cccc3c2-c2ccnc(NC3CCCC3)n2)cc1 [Example 9, 2-(4-Butoxyphenyl)-N-cyclopentyl-3-[2-(cyclopentylamino)-4-pyrimidinyl]-pyrazolo[1,5-a]pyridin-7-amine] | 3 µM
17 | C=C(C)c1ccc(-c2nn3c(NCCCC)cccc3c2-c2ccnc(NCCCC)n2)cc1 [Example 18, N-Butyl-3-[2-(butylamino)-4-pyrimidinyl]-2-(4-isopropenylphenyl)-pyrazolo[1,5-a]pyridin-7-amine] | 9 µM
18 | COc1ccc(-c2nn3c(NCCCCNC(=O)CCC(=O)O)cccc3c2-c2ccnc(NC3CCCC3)n2)cc1 [Example 88, 4-[(4-{[3-[2-(Cyclopentylamino)pyrimidin-4-yl]-2-(4-methoxyphenyl)pyrazolo[1,5-a]pyridin-7-yl]amino}butyl)amino]-4-oxobutanoic acid] | 9 µM
19 | Brc1cccc(-c2nn3c(N4CCCC4)cccc3c2-c2ccnc(NC3CCCC3)n2)c1 [Example 26, 4-[2-(3-Bromophenyl)-7-(1-pyrrolidinyl)pyrazolo[1,5-a]pyridin-3-yl]-N-cyclopentyl-2-pyrimidinamine] | 0.6 µM
20 | FC(F)(F)c1cccc(-c2nn3c(NC4CCCC4)cccc3c2-c2ccnc(NC3CCCC3)n2)c1 [Example 98, N-Cyclopentyl-3-[2-(cyclopentylamino)-4-pyrimidinyl]-2-[3-(trifluoromethyl)phenyl]pyrazolo[1,5-a]pyridin-7-amine] | 0.3 µM
21 | Cc1cccc(-c2nn3c(NC(C)C)cccc3c2-c2ccnc(NC3CCCC3)n2)c1 [Example 49, 3-[2-(Cyclopentylamino)-4-pyrimidinyl]-N-isopropyl-2-(3-methylphenyl)pyrazolo[1,5-a]pyridin-7-amine] | 0.5 µM
22 | O=C(O)c1cccc(-c2nn3c(NC4CCCC4)cccc3c2-c2ccnc(NC3CCCC3)n2)c1 [Example 41, 3-{7-(Cyclopentylamino)-3-[2-(cyclopentylamino)-4-pyrimidinyl]pyrazolo-[1,5-a]pyridin-2-yl}benzoic acid] | 3.5 µM
23 | COc1ccc(-c2nn3c(N4CCCC4)cccc3c2-c2ccnc(NC3CCCC3)n2)cc1 [Example 2, N-Cyclopentyl-4-[2-(4-methoxyphenyl)-7-(1-pyrrolidinyl)pyrazolo[1,5-a]pyridin-3-yl]-2-pyrimidinamine] | 0.6 µM
24 | CC(C)COc1ccc(-c2nn3c(NC4CCCC4)cccc3c2-c2ccnc(NC3CCCC3)n2)cc1 [Example 10, N-Cyclopentyl-3-[2-(cyclopentylamino)-4-pyrimidinyl]-2-(4-isobutoxyphenyl)pyrazolo [1,5-a]pyridin-7-amine] | 0.9 µM
25 | CC(=O)Nc1cccc(-c2nn3c(NC4CCCC4)cccc3c2-c2ccnc(NC3CCCC3)n2)c1 [Example 35, N-(3-{7-(Cyclopentylamino)-3-[2-(cyclopentylamino)-4-pyrimidinyl]pyrazolo[1,5-a]pyridin-2-yl}phenyl)acetamide] | 2 µM
